Measured values from article PMC4992173, “Divergent synthesis and identification of the cellular targets of deoxyelephantopins” (Nature Communications, 2016).

What was measured:
endogenous PPARγ = target: T1, endogenous PPARγ (Homo sapiens, UniProt P37231); experiment: Targeted competitive proteomics of endogenous PPARγ in Caco-2 cells; type: cell-based; conditions: Caco-2 cells treated in situ with 20 μM, lysate then 10 μM 24c; n=6
T1 construct: endogenous PPARγ was successfully enriched and quantified from the DMSO-treated Caco-2 cells; endogenous in cells; host or cells: Caco-2
Method: On the basis of the reported interaction between deoxyelephantopin and PPARγ and because MCF7 cells are known to express very low levels of this protein, we investigated in a separate experiment whether deoxyelephantopin indeed covalently binds PPARγ. The recombinant transcription factor was spiked into MCF7 lysates to 30 nM final concentration and successfully enriched by the methacrylate ester probe 24c, as evidenced from LC–MS/MS-based label-free quantification (LFQ)[48]. […] Gratifyingly, endogenous PPARγ was successfully enriched and quantified from the DMSO-treated Caco-2 cells, whereas DEP pretreatment efficiently competed PPARγ enrichment (>95%; Fig. 7a). […]
Figure 7 Identification of PPARγ as target of deoxyelephantopin and screening of DEP derivatives as PPARγ antagonists. (a) Quantification of endogenous PPARγ enriched from Caco-2 cells using 10 μM 24c following in situ treatment with DEP (20 μM) or DMSO (normalized LFQ values±s.d. are shown; n=6). […] Quantification of fluorescence intensity in the competitive screening for PPARγ antagonists (bottom; values±s.d. are shown; n=3).
Samples were analyzed by LC-MS/MS (see below) and the MS data was processed with […]
Samples were analyzed by LC-MS/MS (see below) using inclusion lists containing m/z and charge of the expected peptides of indicated proteins (see Figure 6c γ . was processed with MaxQuant (see below). […]

[1] = system: several human cancer cell lines; conditions: cited from earlier work

T1 sequence (P37231 29-505 limits assumed): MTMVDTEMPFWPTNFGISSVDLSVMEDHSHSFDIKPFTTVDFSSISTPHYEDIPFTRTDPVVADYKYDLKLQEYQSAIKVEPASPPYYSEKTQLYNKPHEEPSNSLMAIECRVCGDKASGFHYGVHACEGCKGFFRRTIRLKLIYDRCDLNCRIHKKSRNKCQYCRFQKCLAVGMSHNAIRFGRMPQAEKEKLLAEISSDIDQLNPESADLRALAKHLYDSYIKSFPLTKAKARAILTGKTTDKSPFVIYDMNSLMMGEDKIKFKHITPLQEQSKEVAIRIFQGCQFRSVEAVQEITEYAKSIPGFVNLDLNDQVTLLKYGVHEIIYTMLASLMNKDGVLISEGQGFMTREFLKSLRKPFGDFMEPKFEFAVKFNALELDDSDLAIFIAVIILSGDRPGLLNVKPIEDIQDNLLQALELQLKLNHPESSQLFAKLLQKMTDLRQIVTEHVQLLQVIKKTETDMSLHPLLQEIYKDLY

Which results are given for C=C(C)C(=O)O[C@H]1CC2=C[C@@H](C/C(C)=C/[C@H]3OC(=O)C(=C)[C@H]13)OC2=O [deoxyelephantopin]?
competition of endogenous PPARγ enrichment by 24c (endogenous PPARγ): > 95%; cytotoxic doses [1]: 0.5 to 2 µg/mL
